The results in this text go back to ChEMBL document CHEMBL1153531, “1- or 3-(3-Amino-2-hydroxy-1-phenyl propyl)-1,3-dihydro-2H-benzimidazol-2-ones: potent, selective, and orally efficacious norepinephrine reuptake inhibitors” (J Med Chem, 2009).

The target of data set [1] is Sodium-dependent serotonin transporter (Homo sapiens) (UniProt P31645). The data set can be described thus: Inhibition of [3H]hydroxytryptamine creatinine sulfate uptake at human SERT expressed in human JAR cells at 1 uM. The format is cell-based.
Data set [2] deals with Sodium-dependent dopamine transporter (Homo sapiens) (UniProt Q01959). The data set can be described thus: Inhibition of [3H]WIN-35428 binding to human recombinant DAT expressed in CHO cells at 1 uM by scintillation counting. The format is cell-based.
The target in data set [3] is T1, Sodium-dependent noradrenaline transporter (Homo sapiens, UniProt P23975).
The target in data set [4] is Sodium-dependent dopamine transporter (Homo sapiens) (UniProt Q01959). Kind of data set: Inhibition of [3H]WIN-35428 binding to human recombinant DAT expressed in CHO cells by scintillation counting. The class given is cell-based.
Data set [5] shares this target. Kind of data set: Inhibition of [3H]WIN-35428 binding to human recombinant DAT expressed in CHO cells at 10 uM by scintillation counting. The format is cell-based.
Data set [6] addresses Sodium-dependent serotonin transporter (Homo sapiens) (UniProt P31645). The following applies: JAR.
The subject of data set [7] is Rattus norvegicus. Kind of data set: Effect on temperature homeostasis in telemetric ovariectomy-induced thermoregulatory dysfunction Sprague-Dawley rat model assessed as duration of tail skin temperature reduction at 3 mg/kg, po. The format is functional.
Data set [8] deals with Rattus norvegicus. Kind of data set: Effect on temperature homeostasis in telemetric ovariectomy-induced thermoregulatory dysfunction Sprague-Dawley rat model assessed as mean reduction in tail skin temperature at 3 mg/kg, po relative to baseline. The class given is functional.
Data set [9] has as its system Rattus norvegicus. The data set can be described thus: Effect on temperature homeostasis in telemetric ovariectomy-induced thermoregulatory dysfunction Sprague-Dawley rat model assessed as maximum reduction in tail skin temperature at 3 mg/kg, po relative to baseline. The format is functional.
Data set [10] is described as follows: Plasma clearance in Sprague-Dawley rat at 5 mg/kg, iv. The format is ADME, organism-based. The arrangement: dose 5 mg/kg, route intravenous.
Data set [11] can be described thus: Cmax in Sprague-Dawley rat 10 mg/kg, po within 2 hrs. The following applies: in vivo. The class given is ADME, organism-based. More on the design: dose 10 mg/kg, route oral.
Data set [12] in a line: Tmax in Sprague-Dawley rat at 10 mg/kg, po. The format is ADME, organism-based. More on the design: dose 10 mg/kg, route oral. The settings on record: in vivo.
Data set [13] is described as follows: Terminal half life in Sprague-Dawley rat at 5 mg/kg, iv. The class given is ADME, organism-based. The arrangement: dose 5 mg/kg, route intravenous. The settings on record: in vivo, read-out: beta t1/2 (converted).
A short description of data set [14]: Terminal half life in Sprague-Dawley rat at 10 mg/kg, po. The format is ADME, organism-based. More on the design: dose 10 mg/kg, route oral. The following applies: in vivo, read-out: beta t1/2 (converted).
Data set [15] is described as follows: AUC (0 to infinity) in Sprague-Dawley rat at 5 mg/kg, iv. The class given is ADME, organism-based. The arrangement: time infinity, dose 5 mg/kg, route intravenous. The settings on record: plasma.
Data set [16] is described as follows: AUC (0 to infinity) in Sprague-Dawley rat at 10 mg/kg, po. The format is ADME, organism-based. The arrangement: time infinity, dose 10 mg/kg, route oral. The settings on record: plasma.
The nature of data set [17]: Oral bioavailability in Sprague-Dawley rat at 10 mg/kg. The following applies: in vivo. The format is ADME, organism-based.
The target in data set [18] is T1, Sodium-dependent noradrenaline transporter. Kind of data set: biochemical.
Data set [19] is filed under the species Homo sapiens. Kind of data set: Selectivity […] human SERT to IC50 for human NET.
For data set [20], the system named is JAR. The data set can be described thus: Selectivity for human NET expressed in MDCK-Net6 cells over human SERT expressed in human JAR cells. The format is cell-based.
In data set [21] the test system is CHO. Kind of data set: Selectivity for human NET expressed in MDCK-Net6 cells over human DAT expressed in CHO cells. The format is cell-based.
Data set [22] has as its system Rattus norvegicus. The data set can be described thus: Analgesic activity in Sprague-Dawley rat acute analgesia model assessed as increase nocifensive latency at 10 mg/kg, po after 1 hr by hot plate assay. The class given is functional, organism-based. The arrangement: dose 10 mg/kg. In general terms: Thermal pain tests record how soon the animal reacts.
Data set [23] concerns Rattus norvegicus. The data set can be described thus: Analgesic activity in Sprague-Dawley rat acute analgesia model assessed as increase in nocifensive latency at 10 mg/kg, po after 3 hrs by hot plate assay. The class given is functional, organism-based. The arrangement: dose 10 mg/kg.
Data set [24] concerns Rattus norvegicus. The data set can be described thus: Analgesic activity in Sprague-Dawley rat acute analgesia model assessed as increase in nocifensive latency at 10 mg/kg, po after 5 hrs by hot plate assay. The class given is functional, organism-based. More on the design: dose 10 mg/kg.
Data set [25] has as its system Rattus norvegicus. Kind of data set: Antihyperalgesic in po dosed Sprague-Dawley rat spinal nerve ligation model of neuropathic pain assessed as complete hind paw withdrawal after 3 to 4 weeks post surgery by paw pressure technique analysis. The class given is functional, organism-based.

Each structure is given as a SMILES string. The source made the active and inactive calls. The rule behind the calls is not given here.

Chain of Sodium-dependent dopamine transporter (Homo sapiens) (Q01959 whole entry): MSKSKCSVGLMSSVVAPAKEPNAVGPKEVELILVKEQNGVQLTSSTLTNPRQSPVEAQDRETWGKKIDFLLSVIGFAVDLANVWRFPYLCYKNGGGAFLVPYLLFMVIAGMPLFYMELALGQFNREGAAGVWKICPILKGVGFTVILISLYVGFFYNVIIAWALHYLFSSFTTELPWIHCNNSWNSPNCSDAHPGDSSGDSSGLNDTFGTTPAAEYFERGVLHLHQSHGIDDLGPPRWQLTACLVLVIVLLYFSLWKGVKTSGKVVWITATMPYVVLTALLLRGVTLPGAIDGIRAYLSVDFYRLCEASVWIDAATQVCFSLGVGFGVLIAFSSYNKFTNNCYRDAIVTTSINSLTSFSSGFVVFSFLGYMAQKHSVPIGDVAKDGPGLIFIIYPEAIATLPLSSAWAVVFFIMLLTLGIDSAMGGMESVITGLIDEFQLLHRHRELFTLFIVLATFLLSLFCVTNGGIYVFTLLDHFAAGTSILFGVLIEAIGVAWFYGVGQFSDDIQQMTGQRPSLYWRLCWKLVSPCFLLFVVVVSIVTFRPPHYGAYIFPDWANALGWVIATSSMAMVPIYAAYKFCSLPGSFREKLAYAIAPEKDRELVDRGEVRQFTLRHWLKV
Chain of Sodium-dependent serotonin transporter (Homo sapiens) (P31645 whole entry, looked up): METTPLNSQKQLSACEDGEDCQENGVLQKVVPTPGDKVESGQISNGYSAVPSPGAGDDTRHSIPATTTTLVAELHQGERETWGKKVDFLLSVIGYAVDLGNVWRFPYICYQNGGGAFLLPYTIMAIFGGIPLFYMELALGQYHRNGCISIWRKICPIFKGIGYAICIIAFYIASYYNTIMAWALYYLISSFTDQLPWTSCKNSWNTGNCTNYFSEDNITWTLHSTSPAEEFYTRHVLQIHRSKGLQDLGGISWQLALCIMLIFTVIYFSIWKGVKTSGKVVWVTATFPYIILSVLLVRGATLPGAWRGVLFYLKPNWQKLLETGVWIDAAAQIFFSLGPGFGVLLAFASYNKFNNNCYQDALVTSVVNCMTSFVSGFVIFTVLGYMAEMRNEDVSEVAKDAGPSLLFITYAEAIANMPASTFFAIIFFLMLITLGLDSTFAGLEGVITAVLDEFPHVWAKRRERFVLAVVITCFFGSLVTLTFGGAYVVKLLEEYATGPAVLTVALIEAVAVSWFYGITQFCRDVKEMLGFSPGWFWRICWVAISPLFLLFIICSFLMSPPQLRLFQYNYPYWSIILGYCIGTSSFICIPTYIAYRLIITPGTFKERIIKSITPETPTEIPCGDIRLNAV
T1 sequence (P23975 whole entry): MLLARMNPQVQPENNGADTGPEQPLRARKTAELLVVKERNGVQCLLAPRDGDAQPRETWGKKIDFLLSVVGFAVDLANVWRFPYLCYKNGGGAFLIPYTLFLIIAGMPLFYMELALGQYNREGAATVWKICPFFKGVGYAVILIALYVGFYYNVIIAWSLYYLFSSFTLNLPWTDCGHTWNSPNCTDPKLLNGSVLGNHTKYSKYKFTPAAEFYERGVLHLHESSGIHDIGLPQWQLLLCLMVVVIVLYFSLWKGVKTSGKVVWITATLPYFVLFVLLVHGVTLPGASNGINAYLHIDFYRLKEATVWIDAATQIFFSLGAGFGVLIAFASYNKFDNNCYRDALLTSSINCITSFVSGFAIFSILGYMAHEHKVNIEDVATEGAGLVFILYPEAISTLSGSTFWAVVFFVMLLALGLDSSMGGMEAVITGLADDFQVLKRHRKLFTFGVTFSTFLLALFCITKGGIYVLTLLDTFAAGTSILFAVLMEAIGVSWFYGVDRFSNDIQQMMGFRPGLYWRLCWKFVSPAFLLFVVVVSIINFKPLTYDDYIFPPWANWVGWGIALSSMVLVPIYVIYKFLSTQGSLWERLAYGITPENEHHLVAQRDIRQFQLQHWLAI

In the case of `CNC[C@@H](O)[C@H](c1ccccc1)n1c(=O)n(C(C)(C)C)c2ccccc21`, the inhibition came to 1% in data set [1] and 3% in [2]. Moreover, in data set [3], the IC50 was determined as 56 nM.
`CCOc1ccccc1O[C@@H](c1ccccc1)[C@@H]1CNCCO1`: the IC5 in data set [4] was greater than 10000 nM.
As for `CNC[C@@H](O)[C@H](c1ccccc1)n1c(=O)n(C)c2ccccc21`, the inhibition in data set [1] was found to be 15%; in data set [5] it was 14%. The IC50 in data set [3] is 257 nM.
In data set [3], `CCNC[C@@H](O)[C@H](c1ccccc1)n1c(=O)n(C(C)C)c2ccc(F)cc21` came in with an IC50 greater than 1000 nM.
Regarding `CNC[C@@H](O)[C@H](c1ccccc1)n1c(=O)n(C2CCCC2)c2ccccc21`, the inhibition in data set [1] was found to be 46%; in data set [5], 20%. The IC50 in [3] was 66.7 nM. In addition, the IC5 in data set [6] turned out to be 2.37 µM.
As for `CCn1c(=O)n([C@@H](c2ccccc2)[C@H](O)CNC)c2ccccc21`, the inhibition in data set [1] worked out at 4%. For the same compound, the Time in data set [7] came to 3.5 h. The Activity is 1.57 °C in [8] and 1.82 °C in data set [9]. Further, in data set [10], the clearance is 54 mL/min/kg. The Cmax in data set [11] turned out to be 306 ng/mL. Moreover, the Tmax in data set [12] was found to be 66 min. Moreover, the half-life was 216 min in [13] and 204 min in data set [14]. For the same compound, the AUC(0-inf) in data set [15] was determined as 1640 ng·h/mL; in data set [16], 1840 ng·h/mL. In data set [17], the bioavailability is 56%. Also, the IC50 in data set [3] came out at 17.5 nM; in data set [18], 16.8 nM.
As to `CNC[C@@H](O)[C@H](c1ccccc1)n1c(=O)n(C(C)C)c2ccccc21`, the inhibition in [1] and in data set [5] was 19% each time. Further, the IC50 in [3] was 13.4 nM; in data set [18], 10.8 nM.
Regarding `CNCC[C@@H](Oc1ccccc1C)c1ccccc1`, the IC5 in data set [4] is 48 nM.
As to `CCCn1c(=O)n([C@@H](c2ccccc2)[C@H](O)CNC)c2cc(F)ccc21`, the inhibition in data set [1] turned out to be 44%; in [5] it was 16%. In addition, inhibition in [3] was half-maximal at 39.4 nM (IC50). The IC5 in [6] turned out to be 8.32 µM.
Consider `CCn1c(=O)n([C@@H](c2cccc(F)c2)[C@H](O)CNC)c2ccccc21`, for which the inhibition in data set [1] is 15%; in data set [5], -2%. In addition, the results for the Selectivity ratio in [19], in data set [20] and in data set [21] were greater than 900, greater than 500 and greater than 500, respectively. Further, the Time in data set [7] was 5 h. Besides, the Activity is 2.03 °C in [8], 2.62 °C in data set [9] and “Dose-dependent effect” in data set [25]. Besides, the outcome in data set [22], in data set [23] and in [24] was Active. Further, the IC50 in [3] is 7.4 nM; in data set [18], 6.4 nM. Further, the IC5 in data set [6] was greater than 10 µM.
`CNC[C@@H](O)[C@H](c1cccc(F)c1)n1c(=O)n(-c2ccccc2)c2cccc(F)c21`: the inhibition in data set [2] came out at 11%. Moreover, it took 91.9 nM to reach half-maximal inhibition in data set [3] (IC50).
Take `CNC[C@@H](O)[C@H](c1ccccc1)n1c(=O)n(C(C)C)c2cccc(F)c21`: the inhibition in data set [1] is 6%; in [5] it was 12%. The Selectivity ratio in data set [19] is greater than 900; in data set [20] it was greater than 500; in data set [21] it was greater than 500. In data set [7], the Time turned out to be 1 h. The Activity in [8] came to 1.61 °C; in [9] it was 2.09 °C. The compound further gave an IC50 in [3] of 7.8 nM. The IC5 in data set [6] is greater than 10 µM.
On to `CNC[C@@H](O)[C@H](c1ccccc1)n1ccc2ccccc21`, for which the figures for the IC5 in [4] and in data set [6] were 358 nM and 0.358 µM, respectively.
`CNC[C@@H](O)[C@H](c1cccc(F)c1)n1c(=O)n(C(C)C)c2cccc(F)c21`: the inhibition in data set [1] amounted to 19%; in data set [5], 27%. In addition, the IC5 in [4] was found to be 6320 nM; in [6] it was 6.32 µM. Besides, the Selectivity ratio is greater than 900 in data set [19], greater than 500 in data set [20] and greater than 500 in data set [21]. The Time in data set [7] came to 6 h. Further, the Activity came out at 2.44 °C in [8] and 3.73 °C in data set [9]. In [10], the clearance stood at 24 mL/min/kg. For the same compound, the highest level in [11] (Cmax) was 1120 ng/mL. Also, the Tmax in [12] amounted to 30 min. Besides, the half-life in data set [13] is 138 min; in data set [14], 234 min. Moreover, the AUC(0-inf) was 3650 ng·h/mL in data set [15] and 7080 ng·h/mL in data set [16]. This compound gave a bioavailability in [17] of 97%. For the same compound, the IC50 in data set [3] worked out at 6.9 nM; in data set [18], 4.1 nM.
For `CNC[C@@H](O)[C@H](c1ccccc1)n1c(=O)n(C2CCC2)c2ccccc21`, the inhibition in [1] was 5%; in [5], 6%. For the same compound, the IC50 in data set [3] is 42.5 nM; in data set [18], 90 nM.
Take `CCn1c(=O)n([C@@H](c2ccccc2)[C@H](O)CNC)c2cc(F)ccc21`: the inhibition in data set [1] was determined as 32%; in [5], 30%. 36.7 nM corresponded to half-maximal inhibition in [3] (IC50).
As for `CCn1c(=O)n([C@@H](c2ccccc2)[C@H](O)CNC)c2c(F)cccc21`, the inhibition was -5% in [1] and 29% in [5]. For the same compound, the IC50 was 13.8 nM in data set [3] and 11.4 nM in data set [18].
With `CCCn1c(=O)n([C@@H](c2ccccc2)[C@H](O)CNC)c2ccccc21`, the values for the inhibition in data set [1] and in data set [5] were 15% and 6%, respectively. The compound also came in with an IC50 in data set [3] of 18.6 nM.
On to `CCn1c(=O)n([C@@H](c2cccc(F)c2)[C@H](O)CNC)c2c(F)cccc21`, for which the inhibition worked out at 8% in [1] and 11% in data set [5]. The Selectivity ratio in data set [19] is greater than 900; in data set [20], greater than 500; in data set [21], greater than 500. In addition, the IC50 was found to be 10.4 nM in data set [3] and 4.1 nM in data set [18]. In data set [6], this compound came in with an IC5 greater than 10 µM.

As a reminder, the inhibition is the change of the read-out against control, counted positive when it falls. One may read the IC50 as the concentration at which inhibition is half-maximal. The low end stands for greater potency, the high end for weaker potency. What is called clearance is a measure of how efficiently the substance is removed, as volume per time. Higher therefore signals a high capacity for elimination. As a reminder, the Cmax is the peak of the concentration-time curve. The Tmax is the time at which the peak concentration occurs. As a reminder, the AUC(0-inf) is the area under the concentration-time curve extrapolated to infinity. As a reminder, the bioavailability is dose-corrected exposure relative to a reference, in per cent. The low end stands for poor availability, the high end for good availability.
